From patent US9480677B2, “Enantiomers of spiro-oxindole compounds and their uses as therapeutic agents” (Xenon Pharmaceuticals Inc., priority 2009, dated 2016)
pIC50: −log10 of the molar value. Values after ≈ are worked out from the molar mass of the structure shown.

What was measured:
[1] = test system: CFA induced chronic inflammatory pain; assay: CFA induced chronic inflammatory pain, von Frey tactile allodynia; format: in vivo, rats; details: for % Increase From Base Line, 8% topical: 8% (w/v) topical
Procedure: In this test, tactile allodynia is assessed with calibrated von Frey filaments. […] Animals were allowed to recover from the anaesthesia and the baseline thermal and mechanical nociceptive thresholds of all animals were assessed one week after the administration of CFA. All animals were habituated to the experimental equipment for 20 minutes on the day prior to the start of the experiment. The test and control articles were administrated to the animals, and the nociceptive thresholds were measured at defined time points after drug administration to determine the analgesic responses to each of the six available treatments. The time points used were previously determined to show the highest analgesic effect for each test compound. […] Each enantiomer was dosed at 10, 30, 100 or 200 mg/Kg. The plasma concentration achieved with each dose was also determined and the reversal of pain response (as the % increase from baseline threshold) is plotted as a function of plasma concentration. The (S)-enantiomer of the invention was also administered topically to the animals in varying dosages (1%, 2%, 4% and 8% (w/v)) and the nociceptive thresholds measured at defined time points after drug administration to determine the analgesic responses to each of the available treatments. The time points used were previously determined to show the highest analgesic effect for each test compound. The response thresholds of the animals to tactile stimuli were measured using the Model 2290 Electrovonfrey anesthesiometer (IITC Life Science, Woodland Hills, Calif.) following the Hargreaves test. The animals were placed in an elevated Plexiglas enclosure set on a wire mesh surface. After 15 minutes of accommodation, a pre-calibrated Von Frey hair was applied perpendicularly to the plantar of the ipsilateral hind paws of the animals, with sufficient force, measured in grams, to elicit a crisp response of the paw. The response indicated a withdrawal from the painful stimulus and constituted the efficacy endpoint. […] This cut off force is used because it represent approximately 10% of the animals' body weight and it serves to prevent raising of the entire limb due to the use of stiffer hairs, which would change the nature of the stimulus. The data were expressed as percent increase from baseline threshold measured in grams.

[2] = test system: chronic constriction injury neuropathic pain; assay: Neuropathic pain model; chronic constriction injury (CCI); format: in vivo; details: topical ointment containing 2% (w/v)
[3] = Solubility in pharmaceutically acceptable excipients; format: physicochemical
From the text: Thus, the (S)-enantiomer can be formulated in a fewer number of dosage units than the racemate. This property facilitates dosing patients at a higher level if needed to achieve efficacy.

[4] = test system: histamine-induced pruritis; assay: Histamine-induced pruritis in vivo assay; set-up: species or system male ICR mice; details: scored over 40 minutes
Procedure: Histamine induces pruritis (itching) in humans. Accordingly, this assay evaluates the efficacy of topically and orally administered (S)-enantiomer of the invention on histamine-induced pruritis in male ICR mice. […] One day prior to testing, the scapular regions on the animals were shaved with hair clippers. On the testing day, the animals were habituated for 60 minutes in the test chamber comprising of a clear plastic tube placed vertically on a flat surface. After the habituation period, the animals were removed from the plastic tube, placed in a restrainer, and injected with histamine at the shaved scapular region. The injections were made intradermally into the skin in small injection volumes (10 μL) using a Hamilton syringe. […] Immediately after the injections, the animals were returned to the test chambers and observed by cameras placed above the test chambers for a total of 50 minutes. The cameras were connected to a computer where digital video files were created, saved, and analyzed. The number of itching bouts was scored over 40 minutes. An “itching bout” was defined as the lifting of a hind leg, using it to scratch the scapular region, and then placing it back on the ground. […] The data were analyzed using GraphPad Prism 5 statistical analysis software and an unpaired t-test was used for univariate analysis. Results are expressed as mean±SEM. […]

hNav1.7 = hNav1.7 (Homo sapiens, UniProt Q15858); assay: cell-based
[5] = von Frey mechanical paw withdrawal threshold
[6] = von Frey mechanical paw withdrawal threshold, listed as (S)-enantiomer

Chain of hNav1.7 (Q15858 whole entry): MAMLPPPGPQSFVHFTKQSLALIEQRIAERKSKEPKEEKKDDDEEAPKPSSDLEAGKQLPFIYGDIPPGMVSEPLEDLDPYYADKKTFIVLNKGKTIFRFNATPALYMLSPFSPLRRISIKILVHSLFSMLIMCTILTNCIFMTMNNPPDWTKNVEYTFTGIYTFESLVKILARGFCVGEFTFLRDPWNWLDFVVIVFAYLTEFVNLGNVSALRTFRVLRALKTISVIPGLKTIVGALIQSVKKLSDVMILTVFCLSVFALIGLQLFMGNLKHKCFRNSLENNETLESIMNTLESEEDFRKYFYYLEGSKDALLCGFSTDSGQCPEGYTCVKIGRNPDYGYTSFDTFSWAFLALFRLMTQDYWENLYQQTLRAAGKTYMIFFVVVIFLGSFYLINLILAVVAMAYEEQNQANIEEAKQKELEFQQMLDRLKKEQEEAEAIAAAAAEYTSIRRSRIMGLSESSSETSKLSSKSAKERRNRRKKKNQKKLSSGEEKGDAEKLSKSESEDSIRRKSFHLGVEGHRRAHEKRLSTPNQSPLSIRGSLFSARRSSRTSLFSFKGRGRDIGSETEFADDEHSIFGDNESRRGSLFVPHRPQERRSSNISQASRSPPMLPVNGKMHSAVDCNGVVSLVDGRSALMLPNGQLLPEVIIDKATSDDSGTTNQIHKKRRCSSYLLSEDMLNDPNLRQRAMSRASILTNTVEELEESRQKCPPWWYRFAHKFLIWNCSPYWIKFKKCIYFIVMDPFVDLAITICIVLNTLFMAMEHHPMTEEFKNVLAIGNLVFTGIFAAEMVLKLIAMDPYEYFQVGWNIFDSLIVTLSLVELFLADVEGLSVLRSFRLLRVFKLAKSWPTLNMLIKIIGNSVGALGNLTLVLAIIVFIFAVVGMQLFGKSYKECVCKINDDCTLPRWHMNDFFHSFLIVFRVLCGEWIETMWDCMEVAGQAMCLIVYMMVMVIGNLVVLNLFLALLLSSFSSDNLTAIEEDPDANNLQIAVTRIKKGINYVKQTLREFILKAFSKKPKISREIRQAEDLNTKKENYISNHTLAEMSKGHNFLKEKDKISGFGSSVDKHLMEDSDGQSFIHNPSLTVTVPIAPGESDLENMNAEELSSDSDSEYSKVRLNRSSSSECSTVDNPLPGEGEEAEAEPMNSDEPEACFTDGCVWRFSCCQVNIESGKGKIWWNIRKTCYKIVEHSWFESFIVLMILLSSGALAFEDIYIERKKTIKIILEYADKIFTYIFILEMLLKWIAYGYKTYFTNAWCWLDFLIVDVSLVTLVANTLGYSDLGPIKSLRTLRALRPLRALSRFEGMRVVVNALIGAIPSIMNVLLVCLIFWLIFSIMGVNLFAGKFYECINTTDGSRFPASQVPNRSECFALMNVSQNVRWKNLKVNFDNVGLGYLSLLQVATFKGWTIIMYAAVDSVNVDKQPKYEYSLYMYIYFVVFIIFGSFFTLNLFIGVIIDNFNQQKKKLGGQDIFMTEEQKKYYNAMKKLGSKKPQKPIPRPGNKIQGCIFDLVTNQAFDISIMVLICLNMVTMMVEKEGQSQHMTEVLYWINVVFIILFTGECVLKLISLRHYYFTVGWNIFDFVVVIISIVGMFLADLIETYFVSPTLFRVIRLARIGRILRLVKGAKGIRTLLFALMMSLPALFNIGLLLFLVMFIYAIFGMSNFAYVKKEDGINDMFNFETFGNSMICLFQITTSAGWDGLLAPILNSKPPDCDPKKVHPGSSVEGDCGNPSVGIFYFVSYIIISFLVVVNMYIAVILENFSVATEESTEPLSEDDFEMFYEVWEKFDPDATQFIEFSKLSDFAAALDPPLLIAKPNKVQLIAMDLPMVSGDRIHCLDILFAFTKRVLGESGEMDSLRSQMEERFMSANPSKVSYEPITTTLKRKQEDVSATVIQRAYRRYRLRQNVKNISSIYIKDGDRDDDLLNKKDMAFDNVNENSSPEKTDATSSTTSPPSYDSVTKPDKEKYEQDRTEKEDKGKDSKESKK

SMILES: O=C1N(Cc2ccc(C(F)(F)F)o2)c2ccccc2[C@]12COc1cc3c(cc12)OCO3 [(I-S), (S)-1′-{[5-(trifluoromethyl)furan-2-yl]methyl}spiro[furo[2,3-f][1,3]benzodioxole-7,3′-indol]-2′(1′H)-one]
- maximal effect, reversal of pain response ([1]; oral dosing, 200 mg/Kg, compared with the other enantiomer): greater maximal effect
- % Increase From Base Line, 1% topical [1, 5]: 0.62%
- % Increase From Base Line, 1% topical [1, 6]: did not demonstrate an observable increase
- % Increase From Base Line, 2% topical ([1]; von Frey mechanical paw withdrawal threshold, 2% (w/v) topical): 16.71%
- % Increase From Base Line, 4% topical ([1]; von Frey mechanical paw withdrawal threshold, 4% (w/v) topical): 28.79%
- % Increase From Base Line, 8% topical [1, 5]: 45.06%
- % Increase From Base Line, 8% topical [1, 6]: 45.1%
- reversal of pain responses, percent increase from baseline [2]: reversed pain responses
- solubility ([3]; Ethanol, organic solvent or mixture): 36.4 mg/mL (≈ 84.8 mM)
- solubility ([3]; PEG 400, organic solvent or mixture): > 55 mg/mL
- solubility ([3]; Propylene glycol, organic solvent or mixture): 9.8 mg/mL (≈ 22.8 mM)
- solubility ([3]; oil or lipid, Capryol ® 90): 96 mg/mL (≈ 224 mM)
- solubility ([3]; oil or lipid, Labrasol ®): 231 mg/mL (≈ 538 mM)
- solubility ([3]; oil or lipid, Labrasol ®/Capryol ® 90 60/40): 191 mg/mL (≈ 445 mM)
- solubility ([3]; organic solvent or mixture, Labrasol ®/PEG 400 60/40): 182 mg/mL (≈ 424 mM)
- solubility ([3]; organic solvent or mixture, Labrasol ®/Transcutol ® 60/40): 186 mg/mL (≈ 433 mM)
- solubility ([3]; organic solvent or mixture, Tween ® 80): > 123 mg/mL
- total number of itching bouts ([4]; 50 mg of 8% (w/v) topical, n=16, vehicle 134.3±13.31): 89.00±10.51 itching bouts
- total number of itching bouts ([4]; 50 mg/Kg oral gavage, n=8, vehicle 42.88±6.667): 17.25±6.310 itching bouts
- pIC50 (hNav1.7): 8.52
